Organism: Rattus norvegicus
Experiment: Open TG-GATES - Regimen: Daily Repeat
Type: toxicity, organism-based, Sprague-Dawley
Parameters: regimen Daily Repeat, gender Male, age 6 weeks
Conditions: in vivo, po, 1000 mg/kg, route gavage, dose level High; for APTT / Bas / Eos / Fbg / Hb / Ht / Lym / MCH / MCHC / MCV / Mono / Neu / PT / Plat / RBC / Ret / WBC: tissue Blood; for KIDNEY_L / KIDNEY_R / KIDNEY_TOTAL: tissue Kidney; for LIVER: tissue Liver; for A/G / ALP / ALT / AST / BUN / CRE / Ca / Cl / DBIL / GLC / IP / K / LDH / Na / PL / RALB / TBIL / TC / TG / TP / gamma-GTP: tissue Plasma

Structure (SMILES): C[C@H]1O[C@H](O[C@H]2[C@H](O)[C@@H](O)[C@@H](O[C@H]3[C@H](O)[C@@H](O)C(O)O[C@@H]3CO)O[C@@H]2CO)[C@H](O)[C@@H](O)[C@@H]1N[C@H]1C=C(CO)[C@@H](O)[C@H](O)[C@H]1O (some centres not stated) [ACARBOSE]
- TERMINAL_BW (72 h, time 3 day): 230.8 g
- APTT (72 h, time 3 day): 17.8 s
- Bas (72 h, time 3 day): 0%
- Eos (72 h, time 3 day): 1%
- Fbg (72 h, time 3 day): 308.6 mg/dL
- Hb (72 h, time 3 day): 13.5 g/dL
- Ht (72 h, time 3 day): 40.6%
- Lym (72 h, time 3 day): 75.8%
- MCH (72 h, time 3 day): 21.2 pg
- MCHC (72 h, time 3 day): 33.3%
- MCV (72 h, time 3 day): 63.7 fL
- Mono (72 h, time 3 day): 2.8%
- Neu (72 h, time 3 day): 19.6%
- PT (72 h, time 3 day): 13 s
- Plat (72 h, time 3 day): 118.2 x10_4/uL
- RBC (72 h, time 3 day): 638.2 x10_4/ul
- Ret (72 h, time 3 day): 6.9%
- WBC (72 h, time 3 day): 90.6 x10_2/uL
- KIDNEY_L (72 h, time 3 day): 1 g
- KIDNEY_R (72 h, time 3 day): 1 g
- KIDNEY_TOTAL (72 h, time 3 day): 2 g
- LIVER (72 h, time 3 day): 10.9 g
- A/G (72 h, time 3 day): 0.9
- ALP (72 h, time 3 day): 1494.4 IU/L
- ALT (72 h, time 3 day): 46.8 IU/L
- AST (72 h, time 3 day): 74 IU/L
- BUN (72 h, time 3 day): 13.4 mg/dL
- CRE (72 h, time 3 day): 0.2 mg/dL
- Ca (72 h, time 3 day): 10.7 mg/dL
- Cl (72 h, time 3 day): 104.2 meq/L
- DBIL (72 h, time 3 day): 0.012 mg/dL
- GLC (72 h, time 3 day): 169.8 mg/dL
- IP (72 h, time 3 day): 7.7 mg/dL
- K (72 h, time 3 day): 3.9 meq/L
- LDH (72 h, time 3 day): 95.2 IU/L
- Na (72 h, time 3 day): 140 meq/L
- PL (72 h, time 3 day): 140 mg/dL
- RALB (72 h, time 3 day): 2.6 g/dL
- TBIL (72 h, time 3 day): 0.062 mg/dL
- TC (72 h, time 3 day): 75.2 mg/dL
- TG (72 h, time 3 day): 87 mg/dL
- TP (72 h, time 3 day): 5.5 g/dL
- gamma-GTP (72 h, time 3 day): 1 IU/L
- TERMINAL_BW ([…], time 7 day): 275.6 g
- TERMINAL_BW ([…], time 14 day): 312 g
- TERMINAL_BW ([…], time 28 day): 399.3 g
- APTT ([…], time 7 day): 16.9 s
- Bas ([…], time 7 day): 0%
- Eos ([…], time 7 day): 1%
- Fbg ([…], time 7 day): 302.6 mg/dL
- Hb ([…], time 7 day): 13.6 g/dL
- Ht ([…], time 7 day): 40.4%
- Lym ([…], time 7 day): 79.8%
- MCH ([…], time 7 day): 20.9 pg
- MCHC ([…], time 7 day): 33.7%
- MCV ([…], time 7 day): 62.2 fL
- Mono ([…], time 7 day): 2.2%
- Neu ([…], time 7 day): 16.2%
- PT ([…], time 7 day): 13.1 s
- Plat ([…], time 7 day): 119.8 x10_4/uL
- RBC ([…], time 7 day): 649.4 x10_4/ul
- Ret ([…], time 7 day): 6.1%
- WBC ([…], time 7 day): 120 x10_2/uL
- APTT ([…], time 14 day): 21 s
- Bas ([…], time 14 day): 0%
- Eos ([…], time 14 day): 1%
- Fbg ([…], time 14 day): 297 mg/dL
- Hb ([…], time 14 day): 14.7 g/dL
- Ht ([…], time 14 day): 43.8%
- Lym ([…], time 14 day): 79%
- MCH ([…], time 14 day): 20.6 pg
- MCHC ([…], time 14 day): 33.5%
- MCV ([…], time 14 day): 61.4 fL
- Mono ([…], time 14 day): 1.8%
- Neu ([…], time 14 day): 17.4%
- PT ([…], time 14 day): 13.3 s
- Plat ([…], time 14 day): 135 x10_4/uL
- RBC ([…], time 14 day): 713.4 x10_4/ul
- Ret ([…], time 14 day): 4.4%
- WBC ([…], time 14 day): 106.9 x10_2/uL
- APTT ([…], time 28 day): 17.7 s
- Bas ([…], time 28 day): 0.4%
- Eos ([…], time 28 day): 1.2%
- Fbg ([…], time 28 day): 283 mg/dL
- Hb ([…], time 28 day): 16.2 g/dL
- Ht ([…], time 28 day): 47.2%
- Lym ([…], time 28 day): 83.6%
- MCH ([…], time 28 day): 19.6 pg
- MCHC ([…], time 28 day): 34.4%
- MCV ([…], time 28 day): 57 fL
- Mono ([…], time 28 day): 2%
- Neu ([…], time 28 day): 12.6%
- PT ([…], time 28 day): 13.3 s
- Plat ([…], time 28 day): 102.8 x10_4/uL
- RBC ([…], time 28 day): 829 x10_4/ul
- Ret ([…], time 28 day): 2.2%
- WBC ([…], time 28 day): 110.1 x10_2/uL
- KIDNEY_L ([…], time 7 day): 1.1 g
- KIDNEY_R ([…], time 7 day): 1.1 g
- KIDNEY_TOTAL ([…], time 7 day): 2.2 g
- KIDNEY_L ([…], time 14 day): 1.2 g
- KIDNEY_R ([…], time 14 day): 1.2 g
- KIDNEY_TOTAL ([…], time 14 day): 2.4 g
- KIDNEY_L ([…], time 28 day): 1.4 g
- KIDNEY_R ([…], time 28 day): 1.3 g
- KIDNEY_TOTAL ([…], time 28 day): 2.7 g
- LIVER ([…], time 7 day): 13.9 g
- LIVER ([…], time 14 day): 13.4 g
- LIVER ([…], time 28 day): 16.6 g
- A/G ([…], time 7 day): 0.9
- ALP ([…], time 7 day): 1346.8 IU/L
- ALT ([…], time 7 day): 41.2 IU/L
- AST ([…], time 7 day): 66 IU/L
- BUN ([…], time 7 day): 16.6 mg/dL
- CRE ([…], time 7 day): 0.2 mg/dL
- Ca ([…], time 7 day): 10.9 mg/dL
- Cl ([…], time 7 day): 103.2 meq/L
- DBIL ([…], time 7 day): 0.012 mg/dL
- GLC ([…], time 7 day): 182.4 mg/dL
- IP ([…], time 7 day): 7.3 mg/dL
- K ([…], time 7 day): 3.9 meq/L
- LDH ([…], time 7 day): 88.4 IU/L
- Na ([…], time 7 day): 141.4 meq/L
- PL ([…], time 7 day): 140.2 mg/dL
- RALB ([…], time 7 day): 2.6 g/dL
- TBIL ([…], time 7 day): 0.048 mg/dL
- TC ([…], time 7 day): 66.4 mg/dL
- TG ([…], time 7 day): 134.8 mg/dL
- TP ([…], time 7 day): 5.7 g/dL
- gamma-GTP ([…], time 7 day): 1 IU/L
- A/G ([…], time 14 day): 0.8
- ALP ([…], time 14 day): 1516 IU/L
- ALT ([…], time 14 day): 40 IU/L
- AST ([…], time 14 day): 69.8 IU/L
- BUN ([…], time 14 day): 17.4 mg/dL
- CRE ([…], time 14 day): 0.3 mg/dL
- Ca ([…], time 14 day): 10.7 mg/dL
- Cl ([…], time 14 day): 105.2 meq/L
- DBIL ([…], time 14 day): 0.006 mg/dL
- GLC ([…], time 14 day): 184 mg/dL
- IP ([…], time 14 day): 7 mg/dL
- K ([…], time 14 day): 4.1 meq/L
- LDH ([…], time 14 day): 88.8 IU/L
- Na ([…], time 14 day): 142.2 meq/L
- PL ([…], time 14 day): 138.2 mg/dL
- RALB ([…], time 14 day): 2.7 g/dL
- TBIL ([…], time 14 day): 0.046 mg/dL
- TC ([…], time 14 day): 69.8 mg/dL
- TG ([…], time 14 day): 89 mg/dL
- TP ([…], time 14 day): 5.8 g/dL
- gamma-GTP ([…], time 14 day): 1 IU/L
- A/G ([…], time 28 day): 0.8
- ALP ([…], time 28 day): 1153.4 IU/L
- ALT ([…], time 28 day): 35.4 IU/L
- AST ([…], time 28 day): 63.6 IU/L
- BUN ([…], time 28 day): 18.4 mg/dL
- CRE ([…], time 28 day): 0.3 mg/dL
- Ca ([…], time 28 day): 10.8 mg/dL
- Cl ([…], time 28 day): 104.6 meq/L
- DBIL ([…], time 28 day): 0.014 mg/dL
- GLC ([…], time 28 day): 180.2 mg/dL
- IP ([…], time 28 day): 6.5 mg/dL
- K ([…], time 28 day): 4 meq/L
- LDH ([…], time 28 day): 72.6 IU/L
- Na ([…], time 28 day): 142 meq/L
- PL ([…], time 28 day): 151.8 mg/dL
- RALB ([…], time 28 day): 2.8 g/dL
- TBIL ([…], time 28 day): 0.058 mg/dL
- TC ([…], time 28 day): 73.4 mg/dL
- TG ([…], time 28 day): 166.2 mg/dL
- TP ([…], time 28 day): 6.2 g/dL
- gamma-GTP ([…], time 28 day): 1.2 IU/L

Source: ChEMBL document CHEMBL3885861, “Open TG-GATES”
